Results on one compound are retold here after patent US11986462B2, “Use of tacrolimus in preparation of medicament for initiating tissue regeneration function” (priority 2020, dated 2024).

For data set [1] the following is noted: cited from earlier work.
The subject of data set [2] is distal caudal fin tissue of a zebrafish. Kind of data set: Tissue regeneration experiment of distal caudal fin of zebrafish (wound model). The data set is classed as in vivo. As to conditions: 3 μM tacrolimus in culture solution, adult zebrafish, 1, 3 and 5 days after amputation, vs DMSO control. How it is done: 1. Experimental fish lines and culturing method are as follows: a wild-type (AB) fish was used as an experimental fish, stored in a flowing water tank at 28±0.5° C. with a pH=7±0.5, a conductivity of an aquaculture water was […]; and a photoperiod was 14 h of lighting and 10 h of darkness. Fresh sandworms were fed three times a day. Raising was conducted in accordance with the guidelines of the Ministry of Science and Technology of the People's Republic of China on the cultivation of experimental animals (2006); all fishes were kept under standard laboratory conditions. 2. Wound model construction is as follows: an adult zebrafish was lightly anesthetized in an anesthetic supplemented with tricaine and placed in a 1.5 g/100 mL agarose tank. A tissue with a length of 2-3 joints and a width of two fin rays on caudal fin surface was excavated using a scalpel blade; a hole was exposed on the caudal fin surface to form a damaged tissue containing a proximal wound and a distal wound. Proximal regenerative tissues were daily removed to prevent the hole from being filled. A regeneration status of the caudal fin was imaged and recorded using a Zeiss Discovery […] microscope (Carl Zeiss, Germany). 3. […]

The conditions of data set [3]: in the human body; cited from earlier work.
Another data set has as its system calcineurin. Description: Determination of calcineurin activity in caudal fin tissues (malachite green, RII peptide substrate). The data set is classed as in vivo, zebrafish. As to conditions: 3 μM tacrolimus in culture solution, vs DMSO control group non-regenerative tissues. The method, then: 4. […] Free phosphate in the sample was removed, the phosphorylated RII peptide was added, and the sample was incubated at 30° C. for 30 min. Malachite green as a phosphate indicator was added, and the amount of free phosphate in the sample was determined using a SpectraMax® iD3 multi-mode microplate reader (Molecular Devices, USA). The calcineurin activity was normalized to a total protein concentration.

Structures are written as SMILES.

As for `C=CC[C@@H]1/C=C(\C)C[C@H](C)C[C@H](OC)[C@H]2O[C@@](O)(C(=O)C(=O)N3CCCC[C@H]3C(=O)O[C@H](/C(C)=C/[C@@H]3CC[C@@H](O)[C@H](OC)C3)[C@H](C)[C@@H](O)CC1=O)[C@H](C)C[C@@H]2OC` [tacrolimus, Tacrolimus], the “stability in aqueous solution” value in data set [1] was “extremely-unstable in aqueous solution and can be rapidly degraded”. For the same compound, in data set [2], the “regeneration of non-regenerative distal caudal fin tissue” value is on record as “the distal tissue regeneration was initiated”. In data set [3], the half-life is 10.7 h. In addition, the “calcineurin activity in tissue, normalized to total protein concentration” value with calcineurin is listed as “lower than that of the non-regenerative tissues”.
